Measurements published in ChEMBL document CHEMBL1201862, “PubChem BioAssay data set” (2004).
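These data come from cells grown in 96-well plates and exposed to compound for 48 hours at five concentrations. GI50 is the concentration that inhibits growth by half.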 Activity calls are given as the source filed them. Cut-off read from the data, not from the text of the source: active = GI50 up to about 1.1 µM and inactive = higher.

Columns and labels:
Assay in all cases: inhibition of tumour cell growth, NCI panel, 48 h
MDA-N = tested on: MDA-N
SN12C = tested on: SN12C
UACC-62 = tested on: UACC-62
SF-539 = tested on: SF-539
OVCAR-5 = tested on: OVCAR-5
SF-295 = tested on: SF-295
MOLT-4 = tested on: MOLT-4
UO-31 = tested on: UO-31
HOP-92 = tested on: HOP-92
MCF7 = tested on: MCF7
A549 = tested on: A549
MDA-MB-435 = tested on: MDA-MB-435
NCI-H460 = tested on: NCI-H460
T47D = tested on: T47D
CCRF-CEM = tested on: CCRF-CEM
HOP-62 = tested on: HOP-62
MDA-MB-231 = tested on: MDA-MB-231
SNB-75 = tested on: SNB-75
RXF 393 = tested on: RXF 393

Compound | GI50 (MDA-N) | GI50 (SN12C) | GI50 (UACC-62) | GI50 (SF-539) | GI50 (OVCAR-5) | GI50 (SF-295) | GI50 (MOLT-4) | GI50 (UO-31) | GI50 (HOP-92) | GI50 (MCF7) | GI50 (A549) | GI50 (MDA-MB-435) | GI50 (NCI-H460) | GI50 (T47D) | GI50 (CCRF-CEM) | GI50 (HOP-62) | GI50 (MDA-MB-231) | GI50 (SNB-75) | GI50 (RXF 393)
C#Cc1nc(N)c2ncn(C3OC(COS(N)(=O)=O)C(O)C3O)c2n1 (configuration not stated) | < 0.0168 µM (active) | 0.0172 µM (active) | 0.0537 µM (active) | 0.0362 µM (active) | < 0.0148 µM (active) | 0.757 µM (active) | < 0.0181 µM (active) | < 0.0187 µM (active) | < 0.01 µM (active) | 0.0124 µM (active) | 0.0881 µM (active) | 0.016 µM (active) | < 0.0193 µM (active) | < 0.01 µM (active) | < 0.0189 µM (active) | 0.146 µM (active) | < 0.0185 µM (active) | 0.02 µM (active) | < 0.0179 µM (active)
COCCOC1=C(Cl)C(=O)c2c(O)ccc(O)c2C1=O | 1.34 µM (inactive) | 1.92 µM (inactive) | 4.81 µM (inactive) | 2.16 µM (inactive) | 6.93 µM (inactive) | 14.8 µM (inactive) | 0.105 µM (active) | 1.71 µM (inactive) | 0.726 µM (active) | 1.21 µM (inactive) | 8.34 µM (inactive) | 1.02 µM (active) | 5.52 µM (inactive) | 2.47 µM (inactive) | 0.111 µM (active) | 3.33 µM (inactive) | 1.41 µM (inactive) | 5.55 µM (inactive) | 0.798 µM (active)
CN1CCN2CCN(C)CCN(CC1)CC2 | > 100 µM (inactive) | > 100 µM (inactive) | > 100 µM (inactive) | > 100 µM (inactive) | > 100 µM (inactive) | > 100 µM (inactive) | > 100 µM (inactive) | > 100 µM (inactive) | > 100 µM (inactive) | > 100 µM (inactive) | > 100 µM (inactive) | > 100 µM (inactive) | > 100 µM (inactive) | > 100 µM (inactive) | > 100 µM (inactive) | > 100 µM (inactive) | > 100 µM (inactive) | > 100 µM (inactive) | > 100 µM (inactive)
Cc1ccc(/N=N/c2c(O)c3ccccc3[nH]c2=O)c(S(=O)(=O)N(C)C)c1 | > 100 µM (inactive) | > 100 µM (inactive) | > 100 µM (inactive) | > 100 µM (inactive) | > 100 µM (inactive) | > 100 µM (inactive) |  | > 100 µM (inactive) | > 100 µM (inactive) | > 100 µM (inactive) | > 100 µM (inactive) | > 100 µM (inactive) | > 100 µM (inactive) | > 100 µM (inactive) | > 100 µM (inactive) | > 100 µM (inactive) | > 100 µM (inactive) | > 100 µM (inactive) | > 100 µM (inactive)
CN(C)CCNC(=O)c1c(O)ccc2c1c1c(n2CCc2ccccc2)C(=O)c2ccccc2C1=O | 2.25 µM (inactive) | 6.56 µM (inactive) | 2.76 µM (inactive) | 5.37 µM (inactive) | 15.5 µM (inactive) | 4.06 µM (inactive) | 4.42 µM (inactive) | 5.26 µM (inactive) | 8.97 µM (inactive) | 3.37 µM (inactive) | 8.53 µM (inactive) | 2.17 µM (inactive) | 3.58 µM (inactive) | 3.66 µM (inactive) | 0.826 µM (active) | 10.6 µM (inactive) | 5.27 µM (inactive) | 14.4 µM (inactive) | 0.302 µM (active)
O=C(O)C1(CC(CCCN2CCCCC2)c2ccccc2)CCCC1 (configuration not stated) | > 100 µM (inactive) | > 100 µM (inactive) | > 100 µM (inactive) | > 100 µM (inactive) | > 100 µM (inactive) | > 100 µM (inactive) | > 100 µM (inactive) | > 100 µM (inactive) | > 100 µM (inactive) | > 100 µM (inactive) | > 100 µM (inactive) | > 100 µM (inactive) | > 100 µM (inactive) | > 100 µM (inactive) | > 100 µM (inactive) | > 100 µM (inactive) | > 100 µM (inactive) | > 100 µM (inactive) | > 100 µM (inactive)
CC(C)(C)OC(=O)NCC(c1c[nH]c2cc(Br)ccc12)c1c[nH]c2cc(Br)ccc12 | 18.5 µM (inactive) | 18.5 µM (inactive) | 16 µM (inactive) | 20.2 µM (inactive) | 15.5 µM (inactive) | 18.6 µM (inactive) | 34.6 µM (inactive) | 17.5 µM (inactive) | 14.9 µM (inactive) | 18.6 µM (inactive) | 20.1 µM (inactive) | 16.8 µM (inactive) | 21.2 µM (inactive) | 17.6 µM (inactive) | 62.1 µM (inactive) | 17.4 µM (inactive) | 18 µM (inactive) | 21.9 µM (inactive) | 17.6 µM (inactive)
CC1CNC(c2ccc(-c3nc(-c4ccc(C5=NC(C)CN5)cc4)nc(N(C)C)n3)cc2)=N1 (configuration not stated) | 1.85 µM (inactive) | 1.47 µM (inactive) | 1.73 µM (inactive) | 0.855 µM (active) | 3.24 µM (inactive) | 4.22 µM (inactive) | 0.681 µM (active) | 7.33 µM (inactive) | 3.14 µM (inactive) | 1.42 µM (inactive) | 3.02 µM (inactive) | 1.46 µM (inactive) | 3.27 µM (inactive) | 2.71 µM (inactive) | 0.685 µM (active) | 1.47 µM (inactive) | 1.31 µM (inactive) | 1.82 µM (inactive) | 3.22 µM (inactive)
Cc1cc(Cl)nc2nc(Cl)c(N)cc12 | 1.88 µM (inactive) | 1.9 µM (inactive) | 2.37 µM (inactive) | 4.71 µM (inactive) | 17 µM (inactive) | 12.3 µM (inactive) | 4.6 µM (inactive) | 3.92 µM (inactive) | 2.18 µM (inactive) | 1.63 µM (inactive) | 13.5 µM (inactive) | 2.22 µM (inactive) | 2.38 µM (inactive) | 3.21 µM (inactive) | 1.67 µM (inactive) | 6.76 µM (inactive) | 3.48 µM (inactive) | 10.6 µM (inactive) | 8.2 µM (inactive)
C[C@]12CC[C@H]3[C@@H](CCC4=C[C@@H](N5CCCC5)CC[C@@]43C)[C@@H]1C/C(=C\c1ccncc1)[C@@H]2O | 11.4 µM (inactive) | 14.1 µM (inactive) | 15.8 µM (inactive) | 9.35 µM (inactive) | 18 µM (inactive) | 4.91 µM (inactive) | 7.73 µM (inactive) | 4.92 µM (inactive) | 15.9 µM (inactive) | 12.8 µM (inactive) | 12.3 µM (inactive) | 10.3 µM (inactive) | 11.6 µM (inactive) | 16.4 µM (inactive) | 0.445 µM (active) | 4.68 µM (inactive) | 13.9 µM (inactive) | 14.3 µM (inactive) | 5.16 µM (inactive)
C=CCn1c(N)c(C#N)c(C#N)c1CCC | > 100 µM (inactive) | > 100 µM (inactive) | > 100 µM (inactive) | > 100 µM (inactive) | > 100 µM (inactive) | > 100 µM (inactive) | 43.2 µM (inactive) | > 100 µM (inactive) | > 100 µM (inactive) | > 100 µM (inactive) | > 100 µM (inactive) | > 100 µM (inactive) |  | > 100 µM (inactive) | > 100 µM (inactive) | > 100 µM (inactive) | > 100 µM (inactive) | 25 µM (inactive) | > 100 µM (inactive)
O=C1c2ccccc2C(=O)c2sc(Nc3cc(Cl)ccc3Cl)nc21 | 1.82 µM (inactive) | 2.08 µM (inactive) | 2.49 µM (inactive) | 3.16 µM (inactive) | 20.9 µM (inactive) | 4.03 µM (inactive) | 2.52 µM (inactive) | 6.03 µM (inactive) | 15.1 µM (inactive) | 1.7 µM (inactive) | 16.4 µM (inactive) | 2.01 µM (inactive) | 6.68 µM (inactive) | 3.99 µM (inactive) | 4.29 µM (inactive) | 15 µM (inactive) | 1.87 µM (inactive) | 15.1 µM (inactive) | 14.3 µM (inactive)
c1ccc(N/N=C2\CC(c3ccccc3)Oc3ccccc32)cc1 (configuration not stated) | 31.5 µM (inactive) | 36.2 µM (inactive) | 40.6 µM (inactive) | 37.6 µM (inactive) | 46.1 µM (inactive) | 42.7 µM (inactive) | 28.4 µM (inactive) | 22.1 µM (inactive) | 39.1 µM (inactive) | 24 µM (inactive) | 53.7 µM (inactive) | 27.5 µM (inactive) | 45 µM (inactive) | 26.4 µM (inactive) | 33 µM (inactive) | 61 µM (inactive) | 49.3 µM (inactive) | 22.9 µM (inactive) | 31.6 µM (inactive)
O=[N+]([O-])c1ccccc1S(=O)(=O)N1CCCc2cc(Cl)ccc21 | 4.46 µM (inactive) | 82.4 µM (inactive) | 23.9 µM (inactive) | 32.4 µM (inactive) | > 93.1 µM (inactive) | 23.5 µM (inactive) | 6.35 µM (inactive) | 30.6 µM (inactive) | 21.5 µM (inactive) | 28.2 µM (inactive) | 38.7 µM (inactive) | 4.46 µM (inactive) | 18.6 µM (inactive) | 15.3 µM (inactive) | 8.91 µM (inactive) | 60.3 µM (inactive) | > 56.5 µM (inactive) | 4.59 µM (inactive) | 13.8 µM (inactive)
Cc1c(C)c2c(c(N)c1C#N)C(=O)N(OS(=O)(=O)c1ccccc1)C2=O | 29.8 µM (inactive) | 23.7 µM (inactive) | 23.9 µM (inactive) | 16.6 µM (inactive) | > 100 µM (inactive) | > 100 µM (inactive) | 21.4 µM (inactive) | 33.7 µM (inactive) | 17 µM (inactive) | 38 µM (inactive) | 15.6 µM (inactive) | 19 µM (inactive) | 37.5 µM (inactive) | 2.55 µM (inactive) | 21.5 µM (inactive) |  | 52.8 µM (inactive) | 32.5 µM (inactive) | 15.2 µM (inactive)
